pIC50: −log10 of the molar value.
Tests used:
NHDF (fibroblast) = NHDF (fibroblast) spheroid sprouting/scattering in 3D collagen gel; type: cell-based; conditions: Homo sapiens, 24 h, read-out: IC50, NHDF fibroblast spheroid sprouting/scattering
Procedure: Prior application the stock solution [100 mM] of IMD-019064 was diluted 1:10 in DMSO and serially diluted in half logarithmic steps covering the concentration range from 10 mM to 1 μM using 100% DMSO. The final assay concentration ranged from 100 μM to 10 nM with a final DMSO concentration in the assay of 1%. The experiments were pursued in modification of the originally published protocol (Korff and Augustin: J Cell Sci 112: 3249-58, 1999). In brief, spheroids were prepared as described by Korff and Augustin: J Cell Biol 143: 1341-52, 1998) by pipetting 500 endothelial cells (EC) in a hanging drop on plastic dishes to allow overnight spheroid aggregation. […]
Plates were incubated at 37° C. for 24 hours and fixed by adding 4% paraformaldehyde. The cumulative sprout length of 10 randomly selected spheroids per data point was analyzed and the relative inhibition by the test compound determined. […] Sprouting intensity of EC and fibroblast spheroids was quantitated by an image analysis system using an inverted microscope and the digital imaging software Analysis 3.2 (Soft imaging system, Munster, Germany). […] The cumulative sprout length of 10 randomly selected spheroids per data point was analyzed according to the procedure used for the HUVEC experiment. […]

HIF-1 = assay: HIF-1-dependent luciferase reporter gene activity in 293T cells under hypoxia; type: cell-based, human; conditions: for time-dependency of inhibition of HIF-1-dependent luciferase expression: 250 nM, added 4 hours after induction of hypoxia (8 h, 1% O2)
Procedure: A HIF-1-dependent luciferase reporter gene was transfected into 293T cells by transfection with Rotifect™ (Trademarked by Carl Roth GmbH; Karlsruhe, Germany) or alternatively into Jurkat T cells by electroporation. Both cell lines were transfected with a HIF-1-dependent reporter gene. The next day, cells were preincubated for 1 h with the indicated, submicromolar concentrations of the test compounds and then incubated for further 8 h under normoxic or hypoxic (1% O2) conditions. After that, cells were harvested followed by the analysis of luciferase activity in a luminometer.
A HIF-1-dependent luciferase reporter gene was transfected into 293T cells. The next morning, cells were pretreated for 1 h with the indicated concentrations of compounds, followed by induction of hypoxia (hypoxia chamber) for 8 h. Subsequently cells were harvested and lyzed. Luciferase activity in cell extracts was measured in a luminometer (Duo Lumat LB 9507, Berthold) by injecting 20 microliter of assay buffer to 20 microliter of extract. Light emission was measured for 10 s, relative light units are given.
After transfection of 293T cells with a HIF-1-dependent luciferase reporter gene, cells were further incubated under normoxic or hypoxic (8 h, 1% O2) conditions as shown in FIG. 4. Effectively blocking concentrations of the IMDs (250 nM each) were added either 1 hour prior to hypoxia or 2 and 4 hours after induction of hypoxia.

HUVEC [1] = assay: Spheroid-based angiogenesis assay, VEGF-A induced HUVEC sprouting; type: cell-based, human; conditions: after hypoxic or VEGF induction, summary statement
Procedure: As described in Example 4 HUVEC spheroids were generated, cultivated and embedded in a 3D collagen gel and stimulated with Vascular Endothelial Growth Factor alpha [VEGF-A; 25 ng/ml] instead of deferoxamine. Cell spheroids were treated for 24 h with different concentrations of IMD-026259; IMD-026260; Sutent® (Sunitinib) and Sorafenib (Nexavar®) (in Molar [M], as indicated in Table 4; see also FIG. 14A).
The cumulative sprout length of 10 randomly selected spheroids per data point was analyzed and the relative inhibition by the test compound determined. Fitting of IC50 curves and calculation of IC50 values was performed with GraphPad Prism® 5.01 (trademarked by GraphPad Software Inc.). […] Results from the examples described above are summarized in FIG. 14b IC50 values are given in nM for in vitro angiogenesis (HUVEC sprouting) studies after hypoxic or VEGF induction.

IKKy/NEMO = assay: Cellular protein translation in 293T cells (anti-IKKy/NEMO immunoblotting); type: cell-based, human; conditions: 10 h and 24 h; for anti-IKKy/NEMO signal (cellular protein translation): 100 nM
Procedure: 293T cells were grown in the presence of the known translation inhibitor cycloheximide (10 μg/ml) and 100 nM of IMD-019064, IMD-026259 and IMD-026260 respectively. […] Cells were harvested after 10 h and 24 h and cell lysates were produced. Equal amounts of protein contained in the cell lysates were used for immunoblotting with anti-IKKy/NEMO antibodies as shown in FIG. 12. IKKy/NEMO is a constitutively expressed relatively labile protein. Thus successful inhibition of cellular protein translation should result in significant decline of anti-IKKy/NEMO signal.

[2] = tested on: cell-free protein translation (BMV mRNA, ribosomes); assay: Cell-free protein translation of Brome mosaic virus (BMV) mRNA with ribosomes; type: biochemical; conditions: for effect on in vitro protein translation: relevant (nM) concentrations, SDS-PAGE
Procedure: The effect of IMD-019064 on cell-free protein translation in vitro was investigated (see also assay principle in FIG. 8). Brome mosaic virus (BMV) mRNA encoding for 4 different viral proteins was incubated with ribosomes in the presence and absence of IMD-019064 (FIG. 9a), IMD-026259, IMD-026260 (FIG. 9b), or cycloheximide (Chx, 10 μM) (positive control) and the formed proteins analyzed by SDS-PAGE.
Panels show representative SDS-PAGE protein gels. Vehicle-containing translation reactions (Veh) represent 100% translation efficacy, while Cycloheximide (Chx; 10 μg/ml) a known inhibitor of protein translation that was used as a positive control does show significant protein reduction.

HIF-1α protein = assay: Hypoxia induced HIF-1α protein accumulation in 293T cells (immunoblotting); type: cell-based, human; conditions: 250 nM, 1 h preincubation, hypoxia 4 h, 1% O2
Procedure: Effects of IMD-026259, IMD-026260 and IMD-019064 on the stabilisation/accumulation of HIF-1α protein were investigated. 293T cells were preincubated with the indicated concentrations of all three compounds. After 1 h of pre-incubation, 293T cells were pre-incubated with the indicated concentrations of compounds and then further incubated under normoxic or hypoxic (4 h, 1% O2) conditions respectively. After lysis of cells in 1×SDS sample buffer and sonication, the samples were analyzed for HIF-1α abundance by immunoblotting.

endothelial cells = assay: Incorporation of radiolabeled amino acids into unstimulated and IL-1b-stimulated endothelial cells; type: cell-based
Procedure: Compounds of the formula (I) have been reported in the literature to be un-specific inhibitors of protein synthesis. Thus, the question whether IMD-019064 (a rocaglaol derivative) is a direct inhibitor of protein synthesis has been addressed at different levels. Cellular assays (incorporation of radiolabeled amino acids into unstimulated and IL-1b-stimulated endothelial cells) were performed in order to investigate if inhibition of activated signaling cascades (e.g. IL-1 signalling pathway) may contribute to inhibitory activity of IMD-019064.

HIF-1α mRNA = assay: Hif-1α mRNA expression by real-time PCR; type: cell-based; conditions: human cells, 250 nM for 3 h, normoxic or hypoxic (45 minutes, 1% O2)
Procedure: In order to investigate whether the compounds of the invention do exert their HIF-1-1 suppressive action via inhibition of HIF-1-1 transcription the compounds were tested for their effects on HIF-1α mRNA production. In all experiments, human cells were exposed to efficiently blocking concentrations (250 nM) of the test compounds for 3 h. Then cells were further cultivated under normoxic or hypoxic conditions (45 minutes, 1% O2) respectively. Afterwards cell samples were harvested and RNA was extracted. cDNA was synthesized using specific primers and the PE Applied Biosystems Reverse Transcription Reagents. Real-time PCR was performed by using the SYBR Green I detection chemistry (Applied Biosystems) and an ABI Prism 7300 system. The expression of Hif-1α was quantified and results were normalized to Hprt1 and β-Actin (“housekeeping-gene”) expression. The relative abundance of the different genes was calculated by the comparative CT method. HIF-1α transcription of normoxic control cells was arbitrarily set to 1. […] Therefore an effect of IMD-compounds on HIF-1-dependent gene expression seems not to be mediated on HIF-1α transcription (FIG. 5).

HUVEC [3] = assay: Spheroid-based angiogenesis assay, Deferoxamine (hypoxia) induced HUVEC sprouting; type: cell-based, human
Procedure: Prior application the stock solution [100 mM] of IMD-019064 was diluted 1:10 in DMSO and serially diluted in half logarithmic steps covering the concentration range from 10 mM to 1 μM using 100% DMSO. The final assay concentration ranged from 100 μM to 10 nM with a final DMSO concentration in the assay of 1%. The experiments were pursued in modification of the originally published protocol (Korff and Augustin: J Cell Sci 112: 3249-58, 1999). In brief, spheroids were prepared as described by Korff and Augustin: J Cell Biol 143: 1341-52, 1998) by pipetting 500 endothelial cells (EC) in a hanging drop on plastic dishes to allow overnight spheroid aggregation. 50 EC spheroids were then embedded in 0.9 ml of a 3D collagen matrix and pipetted into individual wells of a 24 well plate to allow polymerization.
Plates were incubated at 37° C. for 24 hours and fixed by adding 4% paraformaldehyde. The cumulative sprout length of 10 randomly selected spheroids per data point was analyzed and the relative inhibition by the test compound determined. Fitting of IC50 curves and calculation of IC50 values was performed with GraphPad Prism 5.01. Sprouting intensity of EC and fibroblast spheroids was quantitated by an image analysis system using an inverted microscope and the digital imaging software Analysis 3.2 (Soft imaging system, Munster, Germany). In parallel NHDF (fibroblast) spheroids were embedded in a 3D collagen gel and treated for 24 h with different concentrations of IMD-019064. The cumulative sprout length of 10 randomly selected spheroids per data point was analyzed according to the procedure used for the HUVEC experiment.
The same assays were performed with IMD-026260; IMD-026259; Sutent® (Sunitinib) and Sorafenib (Nexavar®) (see Table 3 for final compound concentrations).

[4] = tested on: PDK1 (pyruvate dehydrogenase kinase1); assay: HIF-1 target gene PDK1 expression in 293T cells by real-time PCR; type: cell-based; conditions: Homo sapiens, HEK-293T, 1 h pretreatment, 8 h hypoxia, read-out: IC50, suppression of endogenous PDK1 gene expression
Procedure: Human 293T cells were cultivated either under normoxic conditions or under hypoxic conditions (1% oxygen) for 4 and 8 hs respectively. Cells were harvested, followed by the isolation of RNA and the generation of cDNAs from Oligo (dT)20 primers using a Reverse Transcriptase kit. Then gene expression was measured by real-time PCR for the following two selected HIF-1α target genes: LDH-A (lactate dehydrogenase isoform A), and PDK1 (pyruvate dehydrogenase kinase1). Real-time PCR was performed with cDNA using specific primers and the SYBR Green I detection chemistry system (Applied Biosystems), utilizing an ABI Prism 7300 system. Actin was also measured as an internal control. The relative abundance of the different genes was calculated by the comparative CT method. In order to facilitate comparison, gene expression under normoxic conditions was arbitrarily set to 1 for each of the three genes. Two independent experiments confirmed PDK1 as the gene which was induced most prominently compared to LDH.
To investigate the capability of the compounds to inhibit PDK1, 293T cells were pretreated for 1 h with 3 different concentrations of the respective inhibitors (IMD-019064; IMD-026259; and IMD-026260). Subsequently, cells were incubated under normoxic/hypoxic conditions for further 8 h and the expression of PDK1 was quantified by real-time PCR as described above.

Compound: COc1ccc(C23Oc4cc(OC)cc(OC)c4C2(O)C(O)CC3c2cccc(F)c2)cc1 (centres unmarked) [IMD-019064, (1,3,3a,8b)-3-(3-fluorophenyl)-6,8-dimethoxy-3a-(4-methoxyphenyl)-2,3,3a,8b-tetrahydro-1H-benzo[d]cyclopenta[b]furan-1,8b-diol]
- pIC50 (NHDF (fibroblast)): 6.74
- time-dependency of inhibition of HIF-1-dependent luciferase expression (HIF-1): able to inhibit HIF-1-dependent luciferase expression even when added 4 hours after hypoxic induction
- inhibition of angiogenic sprouting in vitro (HUVEC sprouting) (HUVEC [1]): potent inhibitors of angiogenic sprouting in vitro
- anti-IKKy/NEMO signal (cellular protein translation) (IKKy/NEMO): did not result in reduced anti-IKKy/NEMO signals
- effect on in vitro protein translation [2]: No significant effect
- block of HIF-1α protein accumulation (HIF-1α protein): almost completely block
- shift of the dose-response curve to higher concentrations, un-stimulated compared to IL-1 stimulated cells, inhibition of amino acid incorporation (endothelial cells): 20 factor
- effect on Hif-1α mRNA production (HIF-1α mRNA): did not show any effects
- pIC50 (HUVEC [3]; Homo sapiens, HUVEC, 24 h, read-out: IC50, hypoxia induced EC (HUVEC) sprouting): 7.52
- difference in HUVEC and fibroblast sensitivity (HUVEC [3]; NHDF IC50 versus Deferoxamine-induced HUVEC IC50): factor six

Compound: OC1CC(c2ccccc2)C2(c3ccc(Cl)cc3)Oc3cc(OCCN4CCCC4)ccc3C12O (centres unmarked) [IMD-026259, (1,3a,8b)-3a-(4-chlorophenyl)-3-phenyl-6-(2-(pyrrolidin-1-yl)ethoxy)-2,3,3a,8b-tetrahydro-1H-benzo[d]cyclopenta[b]furan-1,8b-diol]
- time-dependency of inhibition of HIF-1-dependent luciferase expression (HIF-1): able to inhibit HIF-1-dependent luciferase expression even when added 4 hours after hypoxic induction
- pIC50 (HIF-1; Homo sapiens, HEK-293T, 1 h pretreatment, hypoxia 8 h, read-out: IC50, HIF-1 luciferase inhibitory activity): 7.72
- inhibition of angiogenic sprouting in vitro (HUVEC sprouting) (HUVEC [1]): potent inhibitors of angiogenic sprouting in vitro
- anti-IKKy/NEMO signal (cellular protein translation) (IKKy/NEMO): did not result in reduced anti-IKKy/NEMO signals
- effect on in vitro protein translation [2]: No significant effect
- effect on Hif-1α mRNA production (HIF-1α mRNA): did not show any effects
- pIC50 [4]: 8.05

Compound: CNC(=O)c1cc(Oc2ccc(NC(=O)Nc3ccc(Cl)c(C(F)(F)F)c3)cc2)ccn1 [Nexavar, Sorafenib, reference compound]
- activity on HUVEC sprouting (HUVEC [3]; HUVECs induced by Deferoxamine (hypoxia)): did not show any activity at all

Compound: C[C@@H]1C[C@@H]([C@H](O)CC2CC(=O)NC(=O)C2)C(=O)[C@@H](C)C1 [cycloheximide, reference compound]
- inhibition of cellular protein translation (positive control) (IKKy/NEMO; cycloheximide 10 μg/ml): powerful inhibition of protein translation
- effect on in vitro protein translation (positive control) ([2]; cycloheximide 10 μM / 10 μg/ml): potently suppressed formation of newly synthesized proteins
